Data set [1] has as its system primary porcine hepatocytes. More on the design: method as in PMID 10682383. The settings on record: 250 µM (123.5 µg/mL), 24 h of exposure; cited from earlier work.
The subject of data set [2] is SH-SY5Y, HepG2 and HEK-293 cells. Briefly: Cellular morphology, May-Grünwald-Giemsa staining. The class given is cell-based, human. Conditions: May-Grunwald staining. Here is the method:
This method was used to illustrate the changes that occurred in cell morphology under the influence of the tested compounds. The staining was performed on 24-well plates. The cells at a density of 1 × 10^5 cells/mL were used. After 24 h of incubation with the examined drugs or without them (control), the culture media was removed and the cells were stained with 1 mL of May–Grünwald dye for 3 min at room temperature. Then, 1 mL of deionized water was added to each plate. After 3 min of incubation at room temperature, the liquid was removed. All the plates were rinsed with deionized water, and then the cells were stained with Giemsa dye (dilution 1:20) for 30 min at room temperature. After this time, the dye was removed and the wells were rinsed with 1 mL of deionized water and then allowed to dry. The images were taken using a light microscope (Zeiss, Obercochem, Germany).

For data set [3], the system named is SH-SY5Y cells. Briefly: MTT assay (mitochondrial activity). The settings on record: 72 h. The class given is cell-based, human. Here is the method: (§1) The cytotoxic potential of the veterinary drug and its mixtures with cannabidiol at two non-toxic concentrations: 1.56 and 3.15 µg/mL, on the human SH-SY5Y, HepG2 and HEK 293 cell lines was assessed by decreased viability of the cells within five biochemical endpoints: mitochondrial activity and lysosomal activity (MTT assays, reducing the tetrazolium dye MTT 3-(4,5-dimethylthiazol-2-yl)-2,5-diphenyltetrazolium bromide and neutral red uptake (NRU) assays), total protein content (TPC assay), cellular membrane integrity (leakage lactate dehydrogenase (LDH) assay) and DNA synthesis (the bromodeoxyuridine/5-bromo-2′-deoxyuridine incorporation into the DNA cells (BrdU) assay) after 72 h exposition. Data obtained from the measurement of the optical density in these assays were transformed to percentages in relation to the negative control group (0.1% DMSO in medium), considered to be 100% for the MTT, NRU, TPC and BrdU assays and 0% for the LDH assay. 1% Trition-X 100 solution in medium was used as the positive controls, (Figure 3).
(§2) The human neuroblastoma (SH-SY5H), hepatoma (HepG2) and kidney cells (HEK 293) cells were purchased from the American Type Culture Collection: ATCCCRL-2266,ATCC HB-8065 and ATCC CRL-1573, respectively. These cells were cultured in Minimum Essential Medium Eagle (MEME) (ATCC). The media were supplemented with 10% FBS, 1% L-glutamine (and 1% antibiotic solution (P4333 Sigma). The cells were maintained in 75 cm^2 cell culture flasks (NUNC) in a humidified incubator at 37 °C in an atmosphere of 5% CO2. The medium was refreshed every two or three days, and the cells were subcultured by 0.25% trypsin–0.02% EDTA after reaching 70–80% confluence. Single cell suspensions were prepared and adjusted to a density of 2 × 10^5 cell/mL^−1 (SH-SY5H), 1 × 10^5 cell/mL^−1 (HepG2) and 1 × 10^5 cell/mL^−1 (HEK-293). The cell suspension was transferred to 96-well plates (100 µL/well) or Lab-Tek chamber slides (8 wells) (Nunc) for staining and incubated for 24 h before the exposure to the studied compounds. Stock solutions of tiamulin fumarate and cannabidiol were prepared in DMSO and diluted with culture medium to obtain a concentration range from 1.56 to 200 µg/mL and 1.56 or 3.156 µg/mL, respectively. The selection of tiamulin concentrations was based on data from the literature and pilot studies. The final concentration of DMSO was 0.1% in the medium. The same final concentrations of the solvent and the 1% Trition-X 100 solution were used as the negative and positive controls, respectively. A total of 500 µM hydrogen peroxide (H2O2) in was used as the positive control in the DCFH assay. […] As a negative control, cultured cells were grown in the absence of studied compounds. Each concentration was tested in six replicates in three independent experiments. Cytotoxicity was assessed after 72 h of exposure of the cells to the compounds. The medium was not changed during the incubation time.
(§3) The metabolic activity of living cells was assessed by the measurement of the activity of dehydrogenases. After the incubation of the cells with the studied compounds, 10 μL of the MTT solution (5 mg/mL in PBS) was added to each well of 96-well plates and incubated. After 3 h, the MTT solution was removed, and the intracellular formazan crystals were dissolved in 100 µL DMSO. The plate was shaken for 15 min at room temperature and transferred to a Synergy 2 Multi-Mode Microplate Reader (BioTek® Instruments Inc., Winooski, VT, USA) to measure the absorbance at 570 nm, using a blank as a reference. Cytotoxicity was expressed as a percentage of the negative control (0.1% DMSO in medium).
(§4) This study was performed in three independent experiments. The obtained results are presented as mean values ± SD (standard deviation). […]
For orientation: Tetrazolium dyes change colour on reduction, which living cells bring about.

The next data set relates to HepG2 cells. Briefly: MTT assay (mitochondrial activity). The class given is cell-based, human. The settings on record: HepG2, 72 h. Here is the method:
as §1, §2, §3, §4

In data set [4] the test system is HEK 293 cells. Put plainly: MTT assay (mitochondrial activity). The class given is cell-based, human. The procedure: as §1, §2, §3, §4
The subject of the next data set is CYP3A4. Set-up: method as in PMID 15013817. Conditions: cited from earlier work.
Data set [5] deals with SH-SY5Y cells. Put plainly: NRU assay (lysosomal activity). The settings on record: 72 h. The class given is cell-based, human. The procedure: as §1
(§5) The human neuroblastoma (SH-SY5H), hepatoma (HepG2) and kidney cells (HEK 293) cells were purchased from the American Type Culture Collection: ATCCCRL-2266,ATCC HB-8065 and ATCC CRL-1573, respectively. These cells were cultured in Minimum Essential Medium Eagle (MEME) (ATCC). The media were supplemented with 10% FBS, 1% L-glutamine (and 1% antibiotic solution (P4333 Sigma). The cells were maintained in 75 cm^2 cell culture flasks (NUNC) in a humidified incubator at 37 °C in an atmosphere of 5% CO2. The medium was refreshed every two or three days, and the cells were subcultured by 0.25% trypsin–0.02% EDTA after reaching 70–80% confluence. Single cell suspensions were prepared and adjusted to a density of 2 × 10^5 cell/mL^−1 (SH-SY5H), 1 × 10^5 cell/mL^−1 (HepG2) and 1 × 10^5 cell/mL^−1 (HEK-293). The cell suspension was transferred to 96-well plates (100 µL/well) or Lab-Tek chamber slides (8 wells) (Nunc) for staining and incubated for 24 h before the exposure to the studied compounds. Stock solutions of tiamulin fumarate and cannabidiol were prepared in DMSO and diluted with culture medium to obtain a concentration range from 1.56 to 200 µg/mL and 1.56 or 3.156 µg/mL, respectively. […] Cytotoxicity was assessed after 72 h of exposure of the cells to the compounds. […]
(§6) This method is based on staining living cells with neutral red, which readily diffuses through the plasma membrane and accumulates in lysosomes. […] After 10 min of shaking, the absorbance of the dissolved NR was measured using a Synergy 2 Multi-Mode Microplate Reader (BioTek® Instruments Inc., Winooski, VT, USA) at 540 nm using a blank as a reference. Cytotoxicity was expressed as a percentage of the negative control (0.1% DMSO in medium). […]

In data set [6] the test system is HEK 293 cells. Briefly: NRU assay (lysosomal activity). The class given is cell-based, human. The procedure:
as §1, §5, §6

Setting [7] is: significant (p ≤ 0.05) vs negative control.
Where [8] appears, read: Homo sapiens, read-out: inhibited concentration (IC50), MTT.

Structures are written as SMILES. Where a name gives a salt, the structure may show the parent alone.

For `C=C[C@]1(C)C[C@@H](OC(=O)CSCCN(CC)CC)[C@]2(C)[C@H](C)CC[C@]3(CCC(=O)[C@H]32)[C@@H](C)[C@@H]1O` [T, tiamulin fumarate], in data set [1], the “ROS production in the hepatocyte culture” value is recorded as “increased ROS production”. In data set [2], the “changes in cell morphology” value is listed as “detachment from the adhesion surface”. The “tiamulin concentration that inhibited mitochondrial activity” value in the data set with SH-SY5Y cells [3] (setting [7]) is reported as 6.25 µg/mL; in the data set on HepG2 cells it was 12.5 µg/mL; in the data set with HEK 293 cells [4] (HEK-293, 72 h), 25 µg/mL. Further, the IC50 was 30.2 ± 1.8 µg/mL in the data set on SH-SY5Y cells [3] (setting [8]); 27.4 ± 1.3 µg/mL in the data set with HepG2 cells (setting [8]); 27.5 ± 0.8 µg/mL in the data set with HEK 293 cells [4] (Homo sapiens, HEK293, 72 h, read-out: inhibited concentration (IC50), MTT); 2.1 ± 0.4 µg/mL in the data set with SH-SY5Y cells [5] (Homo sapiens, read-out: inhibited concentration (IC50), NRU); 34.5 ± 1.1 µg/mL in the data set with HEK 293 cells [6] (Homo sapiens, HEK293, 72 h, read-out: inhibited concentration (IC50), NRU). Also, the “effect on CYP3A4” value with CYP3A4 is reported as “strongly blocks CYP3A4”. Besides, the “tiamulin concentration that inhibited lysosomal activity” value worked out at 1.56 µg/mL in the data set with SH-SY5Y cells [5] (setting [7]) and 25 µg/mL with HEK 293 cells [6] (HEK-293, 72 h).

Values taken from paper PMC11676896, “Protective Action of Cannabidiol on Tiamulin Toxicity in Humans—In Vitro Study” (International Journal of Molecular Sciences, 2024).
